In BindingDB's records for doi:10.7270/Q2ZC817P (The Scripps Research Institute Molecular Screening Center, 2007) one finds EC50 data, which are given here for 39 molecules.

Sequence of Sphingosine 1-phosphate receptor 1 (P21453 whole entry): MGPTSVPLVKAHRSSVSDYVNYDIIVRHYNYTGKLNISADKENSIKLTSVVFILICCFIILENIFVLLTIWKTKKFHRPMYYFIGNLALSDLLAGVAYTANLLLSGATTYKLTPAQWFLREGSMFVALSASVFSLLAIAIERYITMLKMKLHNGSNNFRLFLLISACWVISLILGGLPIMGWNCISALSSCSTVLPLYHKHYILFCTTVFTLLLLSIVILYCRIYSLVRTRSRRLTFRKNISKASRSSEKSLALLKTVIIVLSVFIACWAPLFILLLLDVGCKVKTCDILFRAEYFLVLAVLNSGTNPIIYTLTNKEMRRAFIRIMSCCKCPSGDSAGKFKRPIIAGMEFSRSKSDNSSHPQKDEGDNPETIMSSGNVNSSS

The first test has as its target Sphingosine 1-phosphate receptor 1 (Homo sapiens, UniProt P21453). As to the kind of experiment: S1P1 agonism potentiation – cell-based, potentiator mode, 60K MLSMR set, dose response (AID 466).
Details: not given
The term EC50 denotes the midpoint of the concentration-response curve. Take `O=S1(=O)C=C(Sc2nc3ccccc3s2)c2ccccc21` [2-[(1,1-dioxido-1-benzothien-3-yl)thio]-1,3-benzothiazole]: the EC50 was greater than 10 µM.
Same read-out and setting: to `COc1ccc(CCNc2c(C)c(C)nc3ncnn23)cc1` [(5,6-Dimethyl-[1,2,4]triazolo[1,5-a]pyrimidin-7-yl)-[2-(4-methoxy-phenyl)-ethyl]-amine] belongs 3.72 µM; to `COc1ccc(CCNc2ncnc3c2oc2ccccc23)cc1OC` [MLS000041708], 0.601 µM; to `CCC1CCCCN1C(=O)CSc1nnc(-c2c[nH]c3ccccc23)o1` (centres undefined), 4.61 µM.
Take `CC(C)Oc1cc(O)c2c(=O)c(-c3ccc(O)cc3)coc2c1` [3-(4-hydroxyphenyl)-5-oxidanyl-7-propan-2-yloxy-chromen-4-one]: the EC50 is 2.78 µM.
The same measure, in the same setting: to `CC1Cc2ccccc2N1c1ncnc2nc[nH]c12` (centres undefined) [SMR000017649] belongs 7.03 µM.
Still for that read-out and setting: to `Clc1ccc(OCc2nc(-c3ccncc3)no2)c(Br)c1` [5-[(2-bromanyl-4-chloranyl-phenoxy)methyl]-3-pyridin-4-yl-1,2,4-oxadiazole] belongs 3.45 µM; to `CCn1c(NC(=O)c2cccc(Cn3cc(Cl)cn3)c2)nc2ccccc21` [3-[(4-chloranylpyrazol-1-yl)methyl]-N-(1-ethylbenzimidazol-2-yl)benzamide], greater than 10 µM; to `OCC12C=CC(O1)c1c2c(O)n(-c2ccccc2-c2ccccc2)c1O` (centres undefined) [7-(hydroxymethyl)-2-(2-phenylphenyl)-4,7a-dihydro-3aH-octahydro-1H-4,7-epoxyisoindole-1,3-dione], 6.82 µM.
Turning to `CCN(C(=O)C1CCCCC1)c1nnc(-c2cccnc2)s1` [Cyclohexanecarboxylic acid ethyl-(5-pyridin-3-yl-[1,3,4]thiadiazol-2-yl)-amide], the EC50 amounted to 1.75 µM.
On the same count and under the same terms, to `Cc1cc(C)cc(-c2nc(-c3ccncc3)no2)c1` [5-(3,5-dimethylphenyl)-3-(4-pyridyl)-1,2,4-oxadiazole] belongs 1.44 µM.
As for `N#Cc1ccc(NC(=O)Nc2ccc(Cl)cc2)cc1` [1-(4-chlorophenyl)-3-(4-cyanophenyl)urea], the half-maximal effective concentration (EC50) was 7.91 µM.
As for `Cc1ccccc1-c1noc(-c2ccc(O)cc2)n1` [4-[3-(2-methylphenyl)-2H-1,2,4-oxadiazol-5-ylidene]-1-cyclohexa-2,5-dienone], the EC50 came to 8.25 µM.
The same measure, in the same setting: to `NC(=Nc1nc2c(c(=O)[nH]1)CCCC2)Nc1ccccc1` [MLS000078734] belongs 5.87 µM.
On the same count and under the same terms, to `CCCCOC(=O)c1[nH]c2c(c1C)C(=O)CC(c1cc(OC)c(OC)c(OC)c1)C2` (centres undefined) belongs 5.06 µM; to `CC(=N)C(C#N)C(=O)CSc1nc2cc(Cl)ccc2s1` (centres undefined) [(E)-3-amino-2-[2-[(5-chloro-1,3-benzothiazol-2-yl)sulfanyl]acetyl]but-2-enenitrile], 11.1 µM.
The same measure, in the same setting: with `O=C(Nc1ccc(O)cc1)c1cc2n(n1)C(C(F)(F)F)CC(c1ccco1)N2` (centres undefined) [5-(2-furanyl)-N-(4-hydroxyphenyl)-7-(trifluoromethyl)-1,5,6,7-tetrahydropyrazolo[1,5-a]pyrimidine-2-carboxamide] the figure was 3.29 µM; with `COc1ccccc1-c1cc(C(=O)Nc2ccccc2SC)no1` [5-(2-methoxyphenyl)-N-(2-methylsulfanylphenyl)-1,2-oxazole-3-carboxamide], 5.75 µM.
Turning to `CCC(NC(=O)Nc1nnc(C(F)(F)F)s1)(C(F)(F)F)C(F)(F)F`, the concentration giving a half-maximal response (EC50) was greater than 95 µM.
In the case of `CCc1ccc(-c2nc(-c3ccncc3)no2)cc1` [5-(4-ethylphenyl)-3-(4-pyridyl)-1,2,4-oxadiazole], the EC50 is 4.41 µM.
On the same count and under the same terms, to `CN(C)S(=O)(=O)c1ccc(C(=O)Nc2nc(-c3cccs3)cs2)cc1` [4-(dimethylsulfamoyl)-N-(4-thiophen-2-yl-1,3-thiazol-2-yl)benzamide] belongs greater than 10 µM.
On the same count and under the same terms, with `COc1ccc(-c2nc(-c3ccc(NC(=O)c4ccncc4)cc3)no2)cc1OC` [MLS000115086] the figure was 0.685 µM; with `O=C(CSc1nnc(-c2c[nH]c3ccccc23)o1)N(Cc1ccccc1)c1ccc(F)cc1`, 0.837 µM; with `Cc1nc2sccn2c1-c1csc(NCc2ccccc2)n1` [4-(6-methyl-5-imidazo[2,1-b]thiazolyl)-N-(phenylmethyl)-2-thiazolamine], 3.6 µM.
Take `N#Cc1nc(COc2ccc(Cl)cc2Cl)oc1N1CCN(c2ccccc2)CC1` [2-[(2,4-dichlorophenoxy)methyl]-5-(4-phenyl-1-piperazinyl)-4-oxazolecarbonitrile]: the EC50 is greater than 10 µM.
Still for that read-out and setting: with `O=C(CSc1nc2ccccc2o1)Nc1ccc(N2CCOCC2)c(Cl)c1` [2-(1,3-benzoxazol-2-ylsulfanyl)-N-(3-chloranyl-4-morpholin-4-yl-phenyl)ethanamide] the figure was 1.25 µM.
Still for that read-out and setting: with `O=C(CCc1nc(-c2ccccc2F)no1)Nc1ccc(Oc2ccccc2)cc1` [3-[3-(2-fluorophenyl)-1,2,4-oxadiazol-5-yl]-N-(4-phenoxyphenyl)propanamide] the figure was 4.77 µM; with `c1ccc(-c2ccc(-c3nc(-c4ccncc4)no3)cc2)cc1` [5-(4-phenylphenyl)-3-(4-pyridyl)-1,2,4-oxadiazole], 8.31 µM.

Still in this test, the particulars now being: inactive by the depositor's call.
In the case of `CCC(C)OC(=O)c1[nH]c2c(c1C)C(=O)CC(c1ccc(N(C)C)cc1)C2` (centres undefined) [MLS000116530], the concentration for a half-maximal effect (EC50) worked out at 18 µM.
On to `CCN(CC)S(=O)(=O)c1cc(C(=O)Nc2ccncc2)ccc1Cl` [4-chloranyl-3-(diethylsulfamoyl)-N-pyridin-4-yl-benzamide], for which the EC50 is 44.2 µM.
Still for that read-out and setting: to `CCOC(=O)Cc1csc(NC(=O)c2ccc(Br)s2)n1` [2-[2-[(5-bromothiophene-2-carbonyl)amino]thiazol-4-yl]acetic acid ethyl ester] belongs 16.5 µM.
As for `O=C(c1ccco1)N1CCN(c2ncnc3c2[nH]c2ccc(Br)cc23)CC1` [MLS000078404], the EC50 worked out at 15.5 µM.
Take `Oc1c(C(c2ccco2)N2CCN(C(c3ccccc3)c3ccccc3)CC2)sc2ncnn12` (centres undefined) [5-[(4-benzhydrylpiperazin-1-yl)-(furan-2-yl)methyl]-[1,3]thiazolo[3,2-b][1,2,4]triazol-6-ol]: the concentration giving a half-maximal response (EC50) turned out to be 20.1 µM.
With `Cc1ccc(OCCn2cc(C(=N)NO)c3ccccc32)cc1C` [1-[2-(3,4-dimethylphenoxy)ethyl]-N'-hydroxy-1H-indole-3-carboximidamide], the half-maximal effective concentration (EC50) worked out at 11.2 µM.
Same read-out and setting: with `O=c1oc2cc(Br)ccc2n1CSC1=NCCS1` [6-Bromo-3-(4,5-dihydro-thiazol-2-ylsulfanylmethyl)-3H-benzooxazol-2-one] the figure was 17.6 µM.
Still for that read-out and setting: with `COc1ccc2c(c1)-c1nc(NC(=O)c3cccs3)sc1CC2` [N-(8-methoxy-4,5-dihydrobenzo[e][1,3]benzothiazol-2-yl)-2-thiophenecarboxamide] the figure was 20.5 µM; with `CCOC(=O)N1CCC(NC(=O)C2CCCN(Cc3nc(-c4cccc(Cl)c4)oc3C)C2)CC1` (centres undefined) [4-[[1-[[2-(3-chlorophenyl)-5-methyl-oxazol-4-yl]methyl]nipecotoyl]amino]piperidine-1-carboxylic acid ethyl ester], 20.1 µM; with `Cc1cc(N2CCN(C(c3ccccc3)c3ccccc3)CC2)n2ncnc2n1` [7-(4-benzhydrylpiperazin-1-yl)-5-methyl-[1,2,4]triazolo[1,5-a]pyrimidine], 13.6 µM.
Still for that read-out and setting: to `COc1ccc(S(=O)(=O)Cc2ccc(C(=O)N3CCN(c4ccc(Cl)cc4)CC3)o2)cc1` [MLS000120227] belongs 14.7 µM.
